Test systems include BT-549 breast; UACC-62 melanoma; OVCAR-5 ovarian; SK-OV-3 ovarian; MOLT-4 leukemia; IGROV1 ovarian; HOP-92 NSCLC; RPMI-8226 leukemia; HCT-15 colon; HT29 colon.
Common to all, as to experiment: DTP human tumour cell line panel, 48 h

Usually GI50 stands for the concentration giving 50% growth inhibition. The term TGI denotes the concentration giving total growth inhibition. Low values mean more potent growth arrest, high ones less potent growth arrest.

Where “and” joins values, the source holds several entries; their conditions need not be identical. Equal values may be shown once.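 Cells were grown in 96-well plates and exposed to each compound for 48 hours at five concentrations; endpoints were interpolated linearly between bracketing concentrations, or set to the highest concentration if not reached. GI50 is the concentration that inhibits growth by half. TGI: total growth inhibition.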

For the compound `CN1CCN(c2ccc3nc(-c4ccc(OCCCCN5CCN(CCCCN6C(=O)c7cccc8cccc(c78)C6=O)CC5)cc4)[nH]c3c2)CC1`, the GI50 in the test on BT-549 breast was 40.4 µM; in the test with UACC-62 melanoma, 40.7 µM; with OVCAR-5 ovarian it was above 100 µM; with SK-OV-3 ovarian it was above 100 µM; with MOLT-4 leukemia, 51.1 µM; in the test with IGROV1 ovarian, 48.4 µM. Further, the GI50 in the test with HOP-92 NSCLC was 71.4 µM; in the test on RPMI-8226 leukemia, 33.9 µM; in the test with HCT-15 colon, 35.3 µM; in the test with HT29 colon, 86.4 µM. Moreover, the TGI with BT-549 breast, in the test with UACC-62 melanoma, in the test on OVCAR-5 ovarian, in the test on SK-OV-3 ovarian, in the test on MOLT-4 leukemia and with IGROV1 ovarian was above 100 µM each time. For the same compound, the TGI in the test with HOP-92 NSCLC, in the test on RPMI-8226 leukemia, in the test with HCT-15 colon and in the test with HT29 colon was above 100 µM each time.
Turning to `O=C(/C=C/c1ccco1)c1ccc(Nc2nc(Nc3ccc(F)cc3)nc(Nc3ccc(F)cc3)n2)cc1`, the GI50 with BT-549 breast was 4.9 µM; with UACC-62 melanoma, above 100 µM; in the test on OVCAR-5 ovarian, 47.6 µM; in the test on SK-OV-3 ovarian, 32 µM; in the test with MOLT-4 leukemia it was 11.9 µM; in the test on IGROV1 ovarian, 10.7 µM. The GI50 with HOP-92 NSCLC is 4.17 µM; in the test on RPMI-8226 leukemia, 8.99 µM; in the test with HCT-15 colon it was 22.5 µM; in the test on HT29 colon it was 18.1 µM. The TGI with BT-549 breast is 26.8 µM; in the test on UACC-62 melanoma, above 100 µM; with OVCAR-5 ovarian it was above 100 µM; with SK-OV-3 ovarian, above 100 µM; in the test on MOLT-4 leukemia, 48.8 µM; in the test on IGROV1 ovarian, 29.6 µM. Moreover, the TGI with HOP-92 NSCLC was 41.6 µM; in the test with RPMI-8226 leukemia, above 100 µM; in the test on HCT-15 colon it was above 100 µM; in the test on HT29 colon, above 100 µM.
Take `Cc1ccc(S(=O)(=O)NC(CO)C(=O)O)cc1` (stereo not given): the TGI with BT-549 breast, with UACC-62 melanoma, in the test on OVCAR-5 ovarian, with SK-OV-3 ovarian, with MOLT-4 leukemia and in the test on IGROV1 ovarian was above 100 µM each time. For the same compound, the TGI with HOP-92 NSCLC, in the test on RPMI-8226 leukemia, with HCT-15 colon and in the test with HT29 colon was above 100 µM throughout.
Turning to `COc1ccc(C(=O)c2cc3c(N)c(C(=O)Nc4cccc(OC)c4)sc3nc2C)cc1`, the GI50 was 1.67 µM in the test on BT-549 breast; 0.594 µM in the test on UACC-62 melanoma; 1.54 µM in the test on OVCAR-5 ovarian; 0.745 µM in the test with MOLT-4 leukemia; 0.724 µM in the test with IGROV1 ovarian; 2.39 µM in the test on HOP-92 NSCLC. Also, the GI50 in the test with RPMI-8226 leukemia was 0.39 µM; in the test with HCT-15 colon, 0.479 µM; in the test on HT29 colon, 0.472 µM. For the same compound, the TGI in the test with BT-549 breast, in the test with UACC-62 melanoma, in the test with OVCAR-5 ovarian, in the test on SK-OV-3 ovarian, with MOLT-4 leukemia and with IGROV1 ovarian was above 100 µM in each case. Moreover, the TGI with HOP-92 NSCLC, in the test with HCT-15 colon and in the test with HT29 colon was above 100 µM each time.
Regarding `O=C(C=C=Nc1ccccc1)C(=O)N=C=Cc1ccccc1`, the GI50 in the test on BT-549 breast was 2.59 µM; with UACC-62 melanoma, 4.26 µM; in the test with OVCAR-5 ovarian, 2.88 µM; with SK-OV-3 ovarian it was 20.3 µM; in the test on MOLT-4 leukemia it was 1.14 µM; in the test with IGROV1 ovarian, 2.96 µM. In addition, the GI50 with HOP-92 NSCLC is 5.57 µM; with RPMI-8226 leukemia, 0.534 µM; in the test on HCT-15 colon, 1.42 µM; with HT29 colon, 1.89 µM. In addition, the TGI amounted to 9.2 µM with BT-549 breast; 12.6 µM in the test with UACC-62 melanoma; 11.8 µM in the test with OVCAR-5 ovarian; 68 µM in the test with SK-OV-3 ovarian; 5.8 µM in the test with MOLT-4 leukemia; 12.3 µM in the test on IGROV1 ovarian. In addition, the TGI with HOP-92 NSCLC was found to be 20.1 µM; in the test with RPMI-8226 leukemia it was 2.29 µM; with HCT-15 colon it was 4.05 µM; in the test on HT29 colon, 4.74 µM.
For `CC(/C=N/N=C(N)N)=N\N=C(N)N`, the GI50 was 40.9 µM with BT-549 breast; above 55.3 µM with UACC-62 melanoma; 41 µM and 19.4 µM in the test on OVCAR-5 ovarian; 28.2 µM in the test with MOLT-4 leukemia; 54.4 µM in the test on HOP-92 NSCLC; above 42.8 µM in the test with RPMI-8226 leukemia. For the same compound, the GI50 with HCT-15 colon was above 51.4 µM; in the test with HT29 colon, 18.6 µM and 17.1 µM. Also, the TGI was found to be 928 µM with BT-549 breast; 236 µM with UACC-62 melanoma; 347 µM in the test with OVCAR-5 ovarian; 546 µM in the test on SK-OV-3 ovarian; 463 µM in the test with MOLT-4 leukemia; 1640 µM in the test on IGROV1 ovarian. Further, the TGI is 62.5 µM in the test on HOP-92 NSCLC; 454 µM with RPMI-8226 leukemia; 2500 µM in the test with HCT-15 colon; > 58 µM and 1620 µM with HT29 colon.
As to `Cn1cc(C2=C(c3cn(CCCCC(=N)N)c4ccccc34)C(=O)NC2=O)c2ccccc21`, the GI50 was above 25 µM in the test with BT-549 breast; above 25 µM in the test on UACC-62 melanoma; above 25 µM with OVCAR-5 ovarian; above 25 µM in the test on SK-OV-3 ovarian; 22.1 µM with MOLT-4 leukemia; above 21.9 µM in the test on IGROV1 ovarian. Moreover, the GI50 was above 25 µM in the test on HOP-92 NSCLC, above 25 µM in the test with RPMI-8226 leukemia, above 25 µM with HCT-15 colon and above 22.9 µM with HT29 colon. Moreover, the total growth inhibition concentration (TGI) with BT-549 breast, in the test with UACC-62 melanoma, in the test on OVCAR-5 ovarian, in the test on SK-OV-3 ovarian, in the test on MOLT-4 leukemia and in the test on IGROV1 ovarian was above 25 µM each time. For the same compound, the TGI in the test with HOP-92 NSCLC, with RPMI-8226 leukemia, in the test on HCT-15 colon and in the test with HT29 colon was above 25 µM in each case.
Take `Nc1c(C(=O)Nc2cccc3ccccc23)sc2nc3c(cc12)C(=O)CCC3`: the GI50 in the test with BT-549 breast is 3.08 µM; in the test with UACC-62 melanoma, 0.166 µM; in the test on OVCAR-5 ovarian, 0.604 µM; in the test on SK-OV-3 ovarian, 0.173 µM; with MOLT-4 leukemia, 0.659 µM; in the test on IGROV1 ovarian, 0.52 µM. Besides, the GI50 with HOP-92 NSCLC is 2.92 µM; in the test on RPMI-8226 leukemia it was 0.366 µM; in the test on HCT-15 colon, 0.262 µM; in the test with HT29 colon it was 0.265 µM. For the same compound, the TGI in the test on BT-549 breast is above 67.1 µM; in the test on UACC-62 melanoma it was above 75.8 µM; in the test with OVCAR-5 ovarian, above 100 µM; in the test on SK-OV-3 ovarian, 7.65 µM; with MOLT-4 leukemia it was above 100 µM; in the test with IGROV1 ovarian, above 46.7 µM. The TGI is above 100 µM with HOP-92 NSCLC, above 38.2 µM in the test on RPMI-8226 leukemia and above 100 µM in the test on HCT-15 colon.
